Assays:
Assay type in all cases: cell-based, human
[1] = tested on: Tera-2 testicular cancer cells; test: MTT cytotoxicity assay of vanadocenes, TERA-2 cells; details: 24 h, 1.9-250 μM
Experimental: (§1) Human testicular cancer cell lines, Tera-2 (embryonal carcinoma) and Ntera-2 (pluripotent embryonal carcinoma) were obtained from the American Type Culture Collection (ATCC) (Rockeville, Md.) and propagated in T-25, T-75, or T-150 cm^2 tissue culture flasks (Corning Corp., Corning, N.Y.) in McCoy's 5A medium and Dulbecco's modified Eagle's medium respectively. Both media were supplemented with 10% fetal calf serum (FCS), 4 mM glutamine, 100 U/ml penicillin G, and […] streptomycin sulfate. All tissue culture reagents were obtained from Life Technologies Inc. (GIBCO-BRL), Gaithersburg, Md. Cell lines were cultivated for a minimum of two passages after thawing prior to experimentation. Other cell lines that were used in this study were the human B-lineage acute lymphoblastic leukemia (ALL) cell line NALM-6. Uckun, F. M., Evans, W. E., Forsyth, C. J., Waddick, K. G., Tuel-Ahlgren, L., Chelstrom, L. M., Burkhardt, A., Bolen, J., Myers, D. E. Biotherapy of B-cell precursor leukemia by targeting genistein to CD19-associated tyrosine kinase. Science (Washington DC) 267:886–91, 1995; T-lineage ALL cell line MOLT-3, Waurzyniak, B., Shneider, E. A., Tumer, N., Yanishevski, Y., Gunther, R., Chelstrom, L., Wendorf, H., Myers, D. E., Irvin, J. D., Messinger, Y., Ek, O., Zeren, T., Chandan-Langlie, M., Evans, W. E., Uckun, F. M. In vivo toxicity, pharmacokinetics, and antileukemic activity of TXU (anti-CD7)-pokeweed antiviral protein immunotoxin. Clinical Cancer Research 3:881–890, 1997; AML cell line HL-60, Perentesis, J. P., Waddick, K. G., Bendel, A. E., Shao, Y., Warman, B. E., Chandan-Langlie, M., and Uckun, F. M. Induction of apoptosis in multi-drug resistant andradiation-resistant acute myeloid leukemia cells by a recombinant fusion toxin directed against the granulocyte macrophage colony stimulating factor receptor. Clin. Cancer Res. 3:347–355, 1997; breast cancer cell lines MDA-MB-231 and BT-20, Uckun, F. M., Narla, R. K., Jun, X., Zeren, T., Venkatachalam, T., Waddick, K. G., Rostostev, A., Myers, D. E. Cytotoxic activity of EGF-genstein against breast cancer cells. Clin. Cancer Res. 4:901–912, 1998; glioblastoma cell lines U87 and U373, Narla, R. K., Liu, X., Myers, D. E., and Uckun, F. M. 4-(3′-Bromo-4′hydroxylphenyl)-amino-6,7-dimethoxyquinazoline (WHI-P154): A novel quinazoline derivative with potent cytotoxic activity against human glioblastoma cells. Clin. Cancer Res. 4:1405–1414, 1998.
(§2) MTT (3-[4,5-dimethyl thiazol-2-yl]-2,5-diphenyltetrazolium bromide)-based colorimetric assays were used for evaluation of the cytotoxicity of vanadocene compounds. Mosmann, T. Rapid colorimetric assay for cellular growth and survival: application to proliferation and cytotoxicity assays. J. Immunol. Methods, 65: 55–63, 1983. Briefly, cells were harvested with 0.125% (w/v) trypsin-0.02% EDTA (GIBCO-BRL) from exponential-phase maintenance cultures and centrifuged (300 g×5 min). After suspension and counting, cells were dispensed within triplicate 96-well tissue culture plates in 100 μl volumes. After 24 h incubation, the culture medium was discarded and replaced with 100 μl of fresh medium containing serial two-fold dilutions of drugs in medium to yield 1.9 μM to 250 μM. All compounds were reconstituted in DMSO to a concentration of 100 mM, and the stock solution was made fresh for each experiment. Control wells consisted of medium containing 0.25% of DMSO alone were used for solvent control. Culture plates were then incubated for 24 h before adding 10 μl of MTT solution (5 mg/ml in PBS) to each well. Wells containing only medium and MTT were used as controls for each plate. The tetrazolium/formazan reaction was allowed to proceed for 4 h at 37° C., and then 100 μl of the solubilization buffer (10% sodium dodecyl sulfate in 0.1% HCl) were added to all wells and mixed thoroughly to dissolve the dark blue formazan crystals. […]

[2] = tested on: Ntera-2 testicular cancer cells; test: Flow cytometric TUNEL apoptosis assay, NTERA-2 cells; details: 24 h, TUNEL-positive nuclei
Experimental: (§3) A flow cytometric two-color terminal […] transferase (TdT)-mediated digoxigenin-uridine triphosphate (dUTP) nick-end labeling assay (TUNEL) was employed to detect apoptotic nuclei. Gavrieli, Y., Sherman, Y., Ben-Sasson, S. A. Identification of programmed cell death in situ via specific labeling of nuclear DNA fragmentation. J. Cell Biol., 119: 493–501, 1992. Exponentially growing cells (10^6/ml) were incubated in DMSO alone (0.1%) or treated with 100 μM each of the 16 vanadocenes (VDB, VDC, VMDC, VDI, VDA, VDCN, VDOCN, VDSCN, VDSeCN, VDT, VDCO, VDFe, VD(acac), VDH, VD(dpy), and VD(dtc) in 0.1% DMSO for 24 h. Cells were washed in PBS, fixed in 4% paraformaldehyde in PBS for 15 min on ice. Following two washings in PBS, they were permeabilized with 0.1% Triton X-100 in 0.1% sodium citrate for 2 min on ice, and washed twice in PBS. Labeling of exposed 3′-hydroxyl (3′-OH) ends of fragmented nuclear DNA was performed using TdT and fluorescein isothiocyanate (FITC)-conjugated dUTP according to the manufacturer's recommendations (Boehringer Mannheim, Indianapolis, Ind.). Cells were counterstained with 5 μg/ml PI. Control samples included: (i) untreated cells; (ii) cells incubated with the reaction mixture without the TdT enzyme. Cells were analyzed with a FACS Calibur flow cytometer (Becton Dickinson, Mountain View, Calif.). Relative DNA content (PI) was detected with band-pass filter 585/42, and dUTP incorporation (FITC) was detected with band-pass filter 530/30. Fluorescence was compensated for in the acquisition software using single-label control samples. Data were acquired in listmode, gated to 10,000 events per sample, and analyzed with the use of CELLQuest software program (Becton Dickinson). […] Vanadocene-induced apoptosis is shown by an increase in the number of cells staining with FITC-dUTP. The M1 and M2 gates were used to demarcate non-apoptotic and apoptotic PI-counterstained cell populations, respectively. TUNEL assays were performed using two testicular cell lines Tera-2 and Ntera-2 following exposure to each of the 16 vanadocenes. In other experiments, MC540 binding (as an early marker of apoptosis) and PI permeability (as a marker of advanced stage apoptosis) were simultaneously measured in human cancer cells 24 hours after exposure to vanadocenes, as previously described. Uckun, F. M., Narla, R. K., Jun, X., Zeren, T., Venkatachalam, T., Waddick, K. G., Rostostev, A., Myers, D. E. Cytotoxic activity of EGF-genstein against breast cancer cells. Clin. Cancer Res. 4:901–912, 1998. Vassilev, A., Ozer, Z., Navara, C., Mahajan, S., and Uckun, F. M. Bruton's tyrosine kinase as an inhibitor of the Fas/CD95 death-inducing signaling complex. J. Biol. Chem. 274:1646–56, 1999. Whole cells were analyzed using a FACStar Plus flow cytometer (Becton Dickinson, San Jose, Calif.). All analyses were done using 488 nm excitation from an argon laser. MC540 and PI emissions were split with a 600 nm short pass dichroic mirror and a 575 nm band pass filter was placed in front of one photomultiplier tube to measure MC540 emission and a 635 nm band pass filter was used for PI emission.

U373 glioblastoma cells [3] = test: MTT cytotoxicity assay of vanadocenes, U373 cells; details: 24 h
Experimental: as §1, §2

[4] = tested on: Tera-2 testicular cancer cells; test: Flow cytometric TUNEL apoptosis assay, TERA-2 cells; details: 24 h, TUNEL-positive nuclei
Experimental: as §3

[5] = tested on: NALM-6 B-lineage acute lymphoblastic leukemia cells; test: MTT cytotoxicity assay of vanadocenes, NALM-6 cells; details: 24 h
Experimental: as §1
as §2, with “control.” for “control. Culture plates were then incubated for 24 h before adding 10 μl of MTT solution (5 mg/ml in PBS) to each well. Wells containing only medium and MTT were used as controls for each plate. The tetrazolium/formazan reaction was allowed to proceed for 4 h at 37° C., and then 100 μl of the solubilization buffer (10% sodium dodecyl sulfate in 0.1% HCl) were added to all wells and mixed thoroughly to dissolve the dark blue formazan crystals.”

[6] = tested on: Ntera-2 testicular cancer cells; test: MTT cytotoxicity assay of vanadocenes, NTERA-2 cells; details: 24 h, 1.9-250 μM
Experimental: as §1, §2

[7] = tested on: PC3 prostate cancer cells; test: Cytotoxic activity of oxovanadium(IV) compounds, PC3; details: read-out: Cytotoxic Activity PC3
Experimental: (§4) The cytotoxicity of oxovanadium (W) complexes listed in Table 6 were tested against 9 different human cancer cell lines was performed using the MTT (3-[4,5-dimethylthiazol-2-yl]-2,5-diphenyl tetrazolium bromide) assay (Boehringer Mannheim Corp., Indianapolis, Ind.) as described previously (20). Briefly, exponentially growing tumor cells were seeded into a 96-well plate at a density of 4×10^4cells/well and incubated with medium containing the oxovanadium(IV) compounds concentrations ranging from 0.1 to 250 μM for 48 hours at 37° C. in a humidified 5% CO2 atmosphere. Triplicate wells were used for each treatment. To each well, 10 μl of MTT (0.5 mg/ml final concentration) was added and the plates were incubated at 37° C. for 4 hours to allow MTT to form formazan crystals by reacting with metabolically active cells . The formazan crystals were solubilized overnight at 37° C. in a solution containing 10% SDS in 0.01 M HCl. The absorbence of each well was measured in a microplate reader (Labsystems) at 540 nm and a reference wavelength of 690 nm. To translate the OD540 values into the number of live cells in each well, the OD540 values were compared to those on standard OD540—versus—cell number curves generated for each cell line. The percent survival was calculated using the formula: % survival=Live cell number[test]/Live cell number [control]×100. The IC50 values were calculated by non-linear regression analysis using an Graphpad Prism software version 2.0 (Graphpad Software, Inc., San Diego, Calif.).

[8] = tested on: U266BL multiple myeloma cells; test: MTT cytotoxicity assay of oxovanadium(IV) compounds, U266BL; details: 48 hr
Experimental: as §4

[9] = tested on: HS-SULTAN multiple myeloma cells; test: MTT cytotoxicity assay of oxovanadium(IV) compounds, HS-SULTAN; details: 48 hr
Experimental: as §4

[10] = tested on: 833-K testicular cancer cells; test: Cytotoxic activity of oxovanadium(IV) compounds, 833-K; details: read-out: Cytotoxic Activity 833-K
Experimental: as §4

[11] = tested on: NTD1 testicular cancer cells; test: Cytotoxic activity of oxovanadium(IV) compounds, NTD1; details: read-out: Cytotoxic Activity NTD1
Experimental: as §4

HL-60 cells = test: MTT cytotoxicity assay of oxovanadium(IV) compounds, HL-60; details: 48 hr
Experimental: as §4

U373 glioblastoma cells [12] = test: Cytotoxic activity of oxovanadium(IV) compounds, U373; details: read-out: Cytotoxic Activity U373
Experimental: as §4

MOLT-3 cells = test: MTT cytotoxicity assay of oxovanadium(IV) compounds, MOLT-3; details: 48 hr
Experimental: as §4

[13] = tested on: 64cp5 testicular cancer cells; test: Cytotoxic activity of oxovanadium(IV) compounds, 64cp5; details: read-out: Cytotoxic Activity 64cp5
Experimental: as §4

NALM-6 cells = test: MTT cytotoxicity assay of oxovanadium(IV) compounds, NALM-6; details: 48 hr
Experimental: as §4

[14] = tested on: Tera-2 testicular cancer cells; test: Cytotoxic activity of oxovanadium(IV) compounds, TERA-2; details: read-out: Cytotoxic Activity TERA-2
Experimental: as §4

[15] = tested on: HS445 Hodgkin's lymphoma cells; test: MTT cytotoxicity assay of oxovanadium(IV) compounds, HS445; details: 48 hr
Experimental: as §4

BT20 breast cancer cells = test: Cytotoxic activity of oxovanadium(IV) compounds, BT20; details: read-out: Cytotoxic Activity BT20
Experimental: as §4

[16] = tested on: ARH77 multiple myeloma cells; test: MTT cytotoxicity assay of oxovanadium(IV) compounds, ARH77; details: 48 hr
Experimental: as §4, with “Briefly, exponentially growing tumor cells were seeded into a 96-well plate at a density of 4×10^4cells/well and incubated with medium containing the oxovanadium(IV) compounds concentrations ranging from 0.1 to 250 μM for 48 hours at 37° C. in a humidified 5% CO2 atmosphere.” left out

Compound | IC50 [1] [µM] | % Apoptosis at 100 μM NTERA-2 [2] | IC50 (U373 glioblastoma cells [3]) [µM] | % Apoptosis at 100 μM TERA-2 [4] | IC50 [5] [µM] | IC50 [6] [µM] | IC50 [7] [µM] | IC50 [8] [µM] | IC50 [9] [µM] | IC50 [10] [µM] | IC50 [11] [µM] | IC50 (HL-60 cells) [µM] | IC50 (U373 glioblastoma cells [12]) [µM] | IC50 (MOLT-3 cells) [µM] | IC50 [13] [µM] | IC50 (NALM-6 cells) [µM] | IC50 [14] [µM] | IC50 [15] [µM] | IC50 (BT20 breast cancer cells) [µM] | IC50 [16] [µM]
[N-]=[N+]=[N-].[N-]=[N+]=[N-].[V+2].c1cc[cH-]c1.c1cc[cH-]c1 [VDA, VCp2(N3)2] | 70 | 85 (78, 93) % | 51 | 85 (78, 92) % | 16 | 68 | – | – | – | – | – | – | – | – | – | – | – | – | – | –
[I-].[I-].[V+2].c1cc[cH-]c1.c1cc[cH-]c1 [VDI, VCp2I2] | 221 | 57 (46, 69) % | 5 | 72 (71, 73) % | 18 | 204 | – | – | – | – | – | – | – | – | – | – | – | – | – | –
bis(5-nitro-1,10-phenanthroline)sulfatooxovanadium(IV) [Compound 33] | – | – | – | – | – | – | 6.1 | 7.2 ± 1.1 | 13.8 ± 3.6 | 1.1 | 9.1 | 2.6 ± 0.4 | 7.2 | 1.4 ± 0.06 | 5.9 | 0.7 ± 0.01 | 2.6 | 2.3 ± 0.6 | 5.6 | 5.7 ± 1.3
[Br-].[Br-].[V+2].c1cc[cH-]c1.c1cc[cH-]c1 [VDB, VCp2Br2] | 154 | 93 (93, 94) % | 62 | 84 (83, 86) % | 17 | 70 | – | – | – | – | – | – | – | – | – | – | – | – | – | –

— patent US7091351B2, “Vanadium compounds for treating cancer” (Parker Hughes Institute, priority 1998, dated 2006)
